Where two headings read alike, the source gives them in different places.
Tests used:
rat brain FAAH = rat brain FAAH (Rattus norvegicus (Rat), UniProt P97612); details: membrane preparation of rat brain
Excerpt: Enzyme assays. We conducted standard FAAH and monoacylglycerol lipase assays as described^15,37, using as substrates [^3H]-anandamide (a gift of the National Institute on Drug Abuse) and 2-oleoyl-sn-glycerol (Nu-Check Prep, Elysian, Minn.), respectively.

FAAH = FAAH (Mus musculus (Mouse), UniProt O08914); assay: FAAH inhibition ex vivo after systemic administration in mice; details: for ability to access the brain after systemic administration: mice, 1 mg-kg^-1, i.p.; for inhibition at 1 mg/kg: mouse, ip, ex vivo 1 h after a single injection in mice (1 mg-kg^-1, i.p.)
FAAH, sequence (O08914 whole entry): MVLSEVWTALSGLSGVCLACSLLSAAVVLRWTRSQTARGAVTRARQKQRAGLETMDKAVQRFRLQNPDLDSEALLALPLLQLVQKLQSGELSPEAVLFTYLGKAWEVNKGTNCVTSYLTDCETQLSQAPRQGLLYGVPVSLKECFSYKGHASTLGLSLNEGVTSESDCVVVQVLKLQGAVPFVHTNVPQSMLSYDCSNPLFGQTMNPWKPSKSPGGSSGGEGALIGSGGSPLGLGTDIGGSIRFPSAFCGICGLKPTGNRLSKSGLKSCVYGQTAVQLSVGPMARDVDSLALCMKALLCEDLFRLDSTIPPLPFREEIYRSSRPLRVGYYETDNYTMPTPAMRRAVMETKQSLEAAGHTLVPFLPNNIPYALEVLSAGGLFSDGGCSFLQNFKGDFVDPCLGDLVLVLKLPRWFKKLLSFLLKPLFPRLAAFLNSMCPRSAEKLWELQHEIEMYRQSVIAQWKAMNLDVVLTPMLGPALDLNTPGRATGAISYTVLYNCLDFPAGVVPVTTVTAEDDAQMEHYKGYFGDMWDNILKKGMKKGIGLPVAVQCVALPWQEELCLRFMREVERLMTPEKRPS
Description: Drug preparation for in vivo experiments Drugs were dissolved in polyethylene glycol 400/Tween-80/saline (1/1/18; by volume) and administered by i.p. (5-10 mL-kg^−1) or s.c. injection (10 mL-kg^−1).

Fos protein = assay: Formalin-induced Fos expression in lumbar spinal cord; format: in vivo; details: rats, 2 mg-kg^-1, i.p., administered without URB937
Description: Fos expression. We measured Fos protein levels by quantitative immunocytochemistry^5 on slices of lumbar (L4/L5) spinal cord from male Sprague-Dawley rats.
Fos immunohistochemistry Two hours after formalin injection into the dorsal paw, rats received a lethal dose of Nembutal (50 mg-mL^−1). They were perfused through the heart with 100 mL of 1% heparinized phosphate buffered saline (PBS) followed by 300 mL of ice-cold 4% paraformaldehyde. The lumbar-sacral region of the spinal cord was collected from each rat. Spinal cords were post fixed in 4% paraformaldehyde at 4° C. for 24 h and then cryoprotected in 30% sucrose at 4° C. for 24-48 hours. Spinal cords were cryostat-cut into 40 μm transverse sections at the level of the lumbar enlargement (L4/L5). Free floating alternating sections were kept in a series of wells filled with PBS. Every fourth section was processed for Fos immunoreactivity to ensure that the same cell would not be counted twice. Endogenous peroxidases were inactivated by incubation in hydrogen peroxide. […]
Selection of sections and quantification of the number of Fos-positive cells was performed by an observer blinded to experimental conditions. […] Using Image J, Fos expressing cells were counted in each subdivision, regardless of staining intensity, by an observer blinded to experimental treatments.

[1] = tested on: carrageenan-induced inflammation; assay: Carrageenan-induced hyperalgesia, allodynia and paw edema; format: in vivo, mice; details: Swiss mice, 1 mg-kg^-1, i.p., carrageenan
Description: Behavioral tests. We measured nocifensive responses elicited by i.p. injection of acetic acid in male Swiss and C57B1/6 (wild-type or FAAH-deficient) mice^40, intraplantar injection of carrageenan in male Swiss mice^20, intraplantar injection of formalin in male Sprague-Dawley rats^41, and sciatic nerve ligation in male Swiss mice^39.
Behavioral tests Acetic acid-induced writhing was measured in Swiss mice or C57B1/6 mice (wild-type and FAAH-deficient), as described^40 with minor modifications. Briefly, the mice were acclimated to the experimental room for 2 h. Each animal was injected with acetic acid (150 μL, 0.6% in saline) and placed into a glass cylinder. Abdominal stretches (extension of body and hind limbs) were counted for 20 min, starting 5 min after acetic acid injection. […] Behavior was scored by an observer blinded to the treatment conditions. Formalin-induced nociception was assessed in Sprague-Dawley rats, as described^41. The rats were singly housed and kept in a shared holding room under a 12:12 h light:dark cycle. They were given free access to food and water, and allowed to acclimate to the facility for a week before testing. […] They were acclimated to the observation container (clear plexiglas box, 29×29×25 cm) for 15 min before receiving an injection of formalin (50 μL, 5% in saline) into the dorsal surface of the right hind paw. Immediately after formalin injection, the rats were returned to the observation container and nocifensive behavior was recorded for 60 min with a video camera. Recordings were analyzed by observers blinded to treatment conditions. Nocifensive behavior was measured continuously for 60 min^41. […] Each 5-min bin was analyzed for time spent (1) lifting and (2) licking or biting the injected paw. Nocifensive behavior was analyzed using the composite pain score weighted scores technique (CPS-WST1,2) calculated for the entire time of observation (0-60 min) and, separately, for the first (0-10 min) and second phase (10-60 min) of the behavioral response^46. The area under the curve (AUC) corresponding to CPS-WST1,2 was calculated using the trapezoidal rule. Paw edema was induced in mice by injection into the right hind paws of 50 μL of sterile saline containing 1% λ-carrageenan. Paw volumes were measured using a plethysmometer (Ugo Basile, Milan, Italy). […] Rimonabant and AM630 (1 mg kg^−1, i.p.) were injected 30 min before carrageenan. Mechanical hyperalgesia was assessed by measuring the latency(s) to withdraw the paw from a constant mechanical pressure exerted onto its dorsal surface. A 15-g calibrated glass cylindrical rod (diameter=10 mm) chamfered to a conical point (diameter=3 mm) was used to exert the mechanical force. The weight was suspended vertically between two rings attached to a stand and was free to move vertically. A cutoff time of 3 min was used. Thermal hyperalgesia was assessed as described^47, measuring the latency to withdraw the hind paw from a focused beam of radiant heat (thermal intensity: infrared 3.0) applied to the plantar surface, using a commercial apparatus (Ugo Basile, Varese, Italy). The cutoff time was set at 30 s. Mechanical allodynia was assessed by applying a graded force to the plantar hind paw surface with a Von Frey filament, using a Dynamic Plantar Anesthesiometer (Ugo Basile). The cutoff force was set at 50 g.

[2] = brain, read-out: FAAH Inhibition in brain (%)
[3] = liver, read-out: FAAH Inhibition in liver (%)

rat brain FAAH, sequence (P97612 whole entry): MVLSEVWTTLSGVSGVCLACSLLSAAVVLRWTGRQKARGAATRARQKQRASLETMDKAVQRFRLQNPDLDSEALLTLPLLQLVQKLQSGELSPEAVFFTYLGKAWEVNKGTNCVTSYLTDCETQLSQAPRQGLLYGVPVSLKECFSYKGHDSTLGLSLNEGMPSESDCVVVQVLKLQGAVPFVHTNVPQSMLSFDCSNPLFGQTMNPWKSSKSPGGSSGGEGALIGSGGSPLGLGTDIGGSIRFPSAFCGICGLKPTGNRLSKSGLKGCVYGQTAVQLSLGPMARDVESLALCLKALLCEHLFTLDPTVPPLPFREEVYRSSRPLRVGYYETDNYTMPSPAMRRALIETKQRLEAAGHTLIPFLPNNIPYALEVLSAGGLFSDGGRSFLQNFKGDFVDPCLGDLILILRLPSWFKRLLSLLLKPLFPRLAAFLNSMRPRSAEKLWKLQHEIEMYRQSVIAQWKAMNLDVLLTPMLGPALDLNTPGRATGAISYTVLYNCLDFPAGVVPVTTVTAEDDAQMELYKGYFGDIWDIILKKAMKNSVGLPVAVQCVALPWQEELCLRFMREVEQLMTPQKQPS

Row | SMILES | IC50 (rat brain FAAH) [nM] | ability to access the brain after systemic administration (FAAH) | inhibition at 1 mg/kg (FAAH; [2]) [%] | inhibition at 1 mg/kg (FAAH; [3]) [%] | formalin-induced Fos levels, antagonist without URB937 (Fos protein) | hyperalgesia and allodynia in contralateral (non-injected) paws [1]
1 | Cc1ccc(OC(=O)NC2CCCCC2)cc1-c1cccc(C(N)=O)c1 [Compound 1d] | 20.5 ± 0.6 | readily entered the brain | 91.9 ± 1.5 | 93 ± 1.1 |  | 
2 | Cc1c(C(=O)NN2CCCCC2)nn(-c2ccc(Cl)cc2Cl)c1-c1ccc(Cl)cc1 [rimonabant, reference compound] |  |  |  |  | did not significantly alter Fos levels | had no effect
3 | COc1ccc(OC(=O)NC2CCCCC2)cc1-c1cccc(C(N)=O)c1 [Compound 1c] |  | readily entered the brain |  |  |  | 
4 | NC(=O)c1cccc(-c2cccc(OC(=O)NC3CCCCC3)c2)c1 [Compound 1a, cyclohexylcarbamic acid 3′-carbamoylbiphenyl-3-yl ester, reference compound] |  |  | 96.2 ± 0.4 |  |  | 
5 | NC(=O)c1cccc(-c2cc(OC(=O)NC3CCCCC3)ccc2F)c1 [Compound 1e] | 49.7 ± 5.8 | readily entered the brain | 89.7 ± 1.3 | 90.7 ± 1.2 |  | 
6 | COc1ccc(C(=O)c2c(C)n(CCN3CCOCC3)c3cc(I)ccc23)cc1 [AM630, reference compound] |  |  |  |  |  | had no effect
7 | NC(=O)c1cccc(-c2cc(OC(=O)NC3CCCCC3)ccc2N)c1 [Compound 1f] | 42.5 ± 4.2 | largely excluded | 23.2 ± 2.1 | 92.2 ± 0.6 |  | 

Reference: US9187413B2, “Peripherally restricted FAAH inhibitors” (The Regents of the University of California, priority 2010, dated 2015)
